Results from ChEMBL document CHEMBL1833945, “Synthesis and anticonvulsant activity of new N-Mannich bases derived from 5-cyclopropyl-5-phenyl- and 5-cyclopropyl-5-(4-chlorophenyl)-imidazolidine-2,4-diones” (Bioorg Med Chem, 2011).
Calls of active or inactive are those of the source. The rule behind the calls is not given here.

Assays:
[1] = system: Mus musculus; test: Anticonvulsant activity in CF1 albino mouse assessed as time to peak effect at 100 mg/kg, ip; assay type: functional; settings: route intraperitoneal
[2] = Neurotoxicity in ip dosed CF1 albino mouse assessed as impair in motor coordination by rotarod test; assay type: toxicity, organism-based; settings: in vivo
[3] = system: Rattus norvegicus; test: Anticonvulsant activity in Sprague-Dawley albino rat assessed as protection against subcutaneous pentylenetetrazole-induced seizures at 50 mg/kg, po after 4 hrs; assay type: functional, organism-based; parameters: dose 50 mg/kg
[4] = system: Rattus norvegicus; test: Anticonvulsant activity in Sprague-Dawley albino rat assessed as protection against subcutaneous pentylenetetrazole-induced seizures at 50 mg/kg, po after 0.25 hrs; assay type: functional, organism-based; parameters: dose 50 mg/kg
[5] = system: Mus musculus; test: Neurotoxicity in CF1 albino mouse assessed as impair in motor coordination at 300 mg/kg, ip after 4 hrs by rotarod test; assay type: toxicity, organism-based; parameters: dose 300 mg/kg, route intraperitoneal; settings: in vivo
[6] = system: Mus musculus; test: Neurotoxicity in CF1 albino mouse assessed as impair in motor coordination at 300 mg/kg, ip after 0.5 hrs by rotarod test; assay type: toxicity, organism-based; parameters: dose 300 mg/kg, route intraperitoneal; settings: in vivo
[7] = Neurotoxicity in oral dosed Sprague-Dawley albino rat assessed as motor impairment by rotarod test; assay type: toxicity, organism-based; settings: in vivo
[8] = system: Rattus norvegicus; test: Anticonvulsant activity in po dosed Sprague-Dawley albino rat assessed as protection against maximal electroshock-induced seizures; assay type: functional
[9] = system: Rattus norvegicus; test: Anticonvulsant activity in po dosed Sprague-Dawley albino rat assessed as time to peak effect; assay type: functional
[10] = system: Rattus norvegicus; test: Neurotoxicity in Sprague-Dawley albino rat assessed as motor impairment at 50 mg/kg, po after 4 hrs by rotarod test; assay type: toxicity, organism-based; parameters: dose 50 mg/kg, route oral; settings: in vivo
[11] = system: Rattus norvegicus; test: Neurotoxicity in Sprague-Dawley albino rat assessed as motor impairment at 50 mg/kg, po after 2 hrs by rotarod test; assay type: toxicity, organism-based; parameters: dose 50 mg/kg, route oral; settings: in vivo
[12] = system: Rattus norvegicus; test: Neurotoxicity in Sprague-Dawley albino rat assessed as motor impairment at 50 mg/kg, po after 1 hrs by rotarod test; assay type: toxicity, organism-based; parameters: dose 50 mg/kg, route oral; settings: in vivo
[13] = system: Rattus norvegicus; test: Neurotoxicity in Sprague-Dawley albino rat assessed as motor impairment at 50 mg/kg, po after 0.5 hrs by rotarod test; assay type: toxicity, organism-based; parameters: dose 50 mg/kg, route oral; settings: in vivo
[14] = system: Rattus norvegicus; test: Neurotoxicity in Sprague-Dawley albino rat assessed as motor impairment at 50 mg/kg, po after 0.25 hrs by rotarod test; assay type: toxicity, organism-based; parameters: dose 50 mg/kg, route oral; settings: in vivo
[15] = system: Mus musculus; test: Anticonvulsant activity in ip dosed CF1 albino mouse assessed as protection against subcutaneous pentylenetetrazole-induced seizures after 4 hrs; assay type: functional; settings: read-out: MED
[16] = system: Mus musculus; test: Anticonvulsant activity in CF1 albino mouse assessed as protection against maximal electroshock-induced seizures at 300 mg/kg, ip after 4 hrs; assay type: functional, organism-based; parameters: dose 300 mg/kg
[17] = system: Mus musculus; test: Anticonvulsant activity in ip dosed CF1 albino mouse assessed as protection against subcutaneous pentylenetetrazole-induced seizures after 0.5 hrs; assay type: functional; settings: read-out: MED
[18] = system: Mus musculus; test: Anticonvulsant activity in CF1 albino mouse assessed as protection against maximal electroshock-induced seizures at 300 mg/kg, ip after 0.5 hrs; assay type: functional, organism-based; parameters: dose 300 mg/kg
[19] = species on record: Rattus norvegicus
Description: Protective index, ratio of TD50 for neurotoxicity in Sprague-Dawley albino rat to ED50 for inhibition of subcutaneous pentylenetetrazole-induced seizures in Sprague-Dawley albino rat

[20] = system: Rattus norvegicus; test: Anticonvulsant activity in Sprague-Dawley albino rat assessed as protection against subcutaneous pentylenetetrazole-induced seizures at 50 mg/kg, po after 2 hrs; assay type: functional, organism-based; parameters: dose 50 mg/kg
[21] = system: Rattus norvegicus; test: Anticonvulsant activity in Sprague-Dawley albino rat assessed as protection against subcutaneous pentylenetetrazole-induced seizures at 50 mg/kg, po after 1 hrs; assay type: functional, organism-based; parameters: dose 50 mg/kg
[22] = system: Rattus norvegicus; test: Anticonvulsant activity in Sprague-Dawley albino rat assessed as protection against subcutaneous pentylenetetrazole-induced seizures at 50 mg/kg, po after 0.5 hrs; assay type: functional, organism-based; parameters: dose 50 mg/kg
[23] = system: Rattus norvegicus; test: Neurotoxicity in Sprague-Dawley albino rat assessed as motor impairment at 30 mg/kg, po after 4 hrs by rotarod test; assay type: toxicity, organism-based; parameters: dose 30 mg/kg, route oral; settings: in vivo
[24] = system: Rattus norvegicus; test: Neurotoxicity in Sprague-Dawley albino rat assessed as motor impairment at 30 mg/kg, po after 2 hrs by rotarod test; assay type: toxicity, organism-based; parameters: dose 30 mg/kg, route oral; settings: in vivo
[25] = system: Rattus norvegicus; test: Neurotoxicity in Sprague-Dawley albino rat assessed as motor impairment at 30 mg/kg, po after 1 hrs by rotarod test; assay type: toxicity, organism-based; parameters: dose 30 mg/kg, route oral; settings: in vivo
[26] = system: Rattus norvegicus; test: Neurotoxicity in Sprague-Dawley albino rat assessed as motor impairment at 30 mg/kg, po after 0.5 hrs by rotarod test; assay type: toxicity, organism-based; parameters: dose 30 mg/kg, route oral; settings: in vivo
[27] = system: Rattus norvegicus; test: Neurotoxicity in Sprague-Dawley albino rat assessed as motor impairment at 30 mg/kg, po after 0.25 hrs by rotarod test; assay type: toxicity, organism-based; parameters: dose 30 mg/kg, route oral; settings: in vivo
[28] = species on record: Rattus norvegicus; test: Protective index, ratio of TD50 for neurotoxicity in Sprague-Dawley albino rat to ED50 for inhibition of maximal electroshock-induced seizures in Sprague-Dawley albino rat; assay type: functional
[29] = system: Mus musculus; test: Neurotoxicity in CF1 albino mouse assessed as loss of rotard grasping at 300 mg/kg, ip after 0.5 hrs by rotarod test; assay type: toxicity, organism-based; parameters: dose 300 mg/kg, route intraperitoneal; settings: in vivo
[30] = system: Mus musculus; test: Anticonvulsant activity in ip dosed CF1 albino mouse assessed as protection against maximal electroshock-induced seizures after 4 hrs; assay type: functional; settings: read-out: MED
[31] = Lipophilicity, log P of compound; assay type: physicochemical; settings: octanol/water
[32] = system: Mus musculus; test: Anticonvulsant activity in ip dosed CF1 albino mouse assessed as protection against maximal electroshock-induced seizures after 0.5 hrs; assay type: functional; settings: read-out: MED
[33] = system: Mus musculus; test: Neurotoxicity in CF1 albino mouse assessed as minimum dose causing loss of righting reflex at 300 mg/kg, ip after 4 hrs by rotarod test; assay type: toxicity, organism-based; parameters: dose 300 mg/kg, route intraperitoneal; settings: in vivo

Question: With `CC[C@@H](C(N)=O)N1CCCC1=O` as the compound, how does the Time [1] read?
Answer: 1 h

Question: What about the TD50 [2] of the same compound?
Answer: > 500 mg/kg

Question: For `CCC1(C)CC(=O)NC1=O` (centres undefined) [ETHOSUXIMIDE], which Activity [3] is on record?
Answer: inactive

Question: And the Activity [4]?
Answer: inactive

Question: What about the Activity [5] of the same compound?
Answer: Non-toxic

Question: What about the Activity [6] of the same compound?
Answer: Non-toxic

Question: What about the TD50 [7] of the same compound?
Answer: > 500 mg/kg

Question: And the ED50 [8]?
Answer: > 500 mg/kg

Question: What about the Time [9] of the same compound?
Answer: 2 h

Question: And the Activity [10]?
Answer: Non-toxic

Question: And the Activity [11]?
Answer: Non-toxic

Question: What about the Activity [12] of the same compound?
Answer: Non-toxic

Question: And the Activity [13]?
Answer: Non-toxic

Question: And the Activity [14]?
Answer: Non-toxic

Question: What about the minimal effective dose [15] of the same compound?
Answer: 300 mg/kg

Question: What about the Activity [16] of the same compound?
Answer: inactive

Question: What about the minimal effective dose [17] of the same compound?
Answer: 100 mg/kg

Question: And the Activity [18]?
Answer: inactive

Question: And the PI [19]?
Answer: >3

Question: For `O=C1NC(c2ccccc2)(C2CC2)C(=O)N1CN1CCOCC1` (centres undefined), which Activity [20] is on record?
Answer: Active

Question: And the Activity [21]?
Answer: inactive

Question: And the Activity [22]?
Answer: inactive

Question: What about the Activity [4] of the same compound?
Answer: inactive

Question: And the Activity [23]?
Answer: Non-toxic

Question: And the Activity [24]?
Answer: Non-toxic

Question: And the Activity [25]?
Answer: Non-toxic

Question: And the Activity [26]?
Answer: Non-toxic

Question: What about the Activity [27] of the same compound?
Answer: Non-toxic

Question: What about the PI [28] of the same compound?
Answer: <10.79

Question: What about the TD50 [7] of the same compound?
Answer: < 150 mg/kg

Question: What about the ED50 [8] of the same compound?
Answer: 13.9 mg/kg

Question: And the Time [9]?
Answer: 4 h

Question: What about the Activity [10] of the same compound?
Answer: Non-toxic

Question: And the Activity [11]?
Answer: Non-toxic

Question: What about the Activity [12] of the same compound?
Answer: Non-toxic

Question: And the Activity [13]?
Answer: Non-toxic

Question: And the Activity [14]?
Answer: Non-toxic

Question: What about the Activity [29] of the same compound?
Answer: Toxic

Question: And the minimal effective dose [15]?
Answer: 300 mg/kg

Question: What about the minimal effective dose [17] of the same compound?
Answer: 30 mg/kg

Question: What about the minimal effective dose [30] of the same compound?
Answer: 30 mg/kg

Question: And the logP [31]?
Answer: 1.33

Question: And the minimal effective dose [32]?
Answer: 100 mg/kg

Question: What about the Activity [33] of the same compound?
Answer: Toxic
